We go through 18 compounds from patent US20250281424A1 (New York Blood Center, Inc, priority 2020, published 2025).

In this assay the target is T1, human PF4 (Homo sapiens, UniProt P02776).
T1 construct: PF4 is a 70 amino acid, lysine-rich 7.8 kDa platelet-specific protein; made in house; host or cells: Escherichia coli BL21DE3 pLysS (pT7-7) and/or Drosophila S2 cells
T1 sequence (P02776 32-101): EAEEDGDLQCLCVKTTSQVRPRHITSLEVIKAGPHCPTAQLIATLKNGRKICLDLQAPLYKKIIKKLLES
As to the kind of experiment: Inhibition of PF4 tetramer formation (BS3 cross-linking, SDS-PAGE). The note with it: for inhibition at 1 µM: 1 μM inhibitor; for inhibition at 1 µM / inhibition at 3 µM: read-out: % inhibition of PF4 tetramer formation at single concentration of inhibitor; for inhibition at 3 µM: 3 μM inhibitor (column A). The assay is classed as biochemical. The method in brief: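 Recombinant human wild-type PF4 (E. coli-expressed, heparin-purified), 10 μg/ml in PBS, incubated with compound 15 min at 37° C or 60 min at room temperature, then cross-linked with 0.2 mM BS3 for 30 min at room temperature. Reducing 12% SDS-PAGE; bands quantified as % tetramer, trimer, dimer, monomer versus compound-free control.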

Take `COCCOCCNC(=O)C1C(=O)c2ccc(C#Cc3ccc4c(c3)C(=O)C(C(=O)NCCOCCOC)C4=O)cc2C1=O` (stereo not shown) [Example 381, N-[2-(2-methoxyethoxy)ethyl]-5-[2-(2-{[2-(2-methoxyethoxy)ethyl]carbamoyl}-1,3-dioxo-2,3-dihydro-1H-inden-5-yl)ethynyl]-1,3-dioxo-2,3-dihydro-1H-indene-2-carboxamide]: the inhibition at 1 µM came to 7% and the inhibition at 3 µM came to 19%.

Broadly, the IC50 is the point on the concentration scale where inhibition reaches its midpoint. As for `COCCOCCC(=O)C1C(=O)c2ccc(C(=O)c3ccc4c(c3)C(=O)C(C(=O)CCOCCOC)C4=O)cc2C1=O` (stereo not shown) [Example 382, 2-[3-(2-methoxyethoxy)propanoyl]-5-{2-[3-(2-methoxyethoxy)propanoyl]-1,3-dioxo-2,3-dihydro-1H-indene-5-carbonyl}-2,3-dihydro-1H-indene-1,3-dione], the inhibition at 1 µM was found to be 20% and the inhibition at 3 µM came out at 70%. The IC50 (read-out: IC50 of PF4 tetramer formation inhibition) came out at 290 nM.

In the case of `COCCOCCC(=O)C1C(=O)c2ccc(Oc3ccc4c(c3)C(=O)C(C(=O)CCOCCOC)C4=O)cc2C1=O` (stereo not shown) [Example 383, 2-[3-(2-methoxyethoxy)propanoyl]-5-({2-[3-(2-methoxyethoxy)propanoyl]-1,3-dioxo-2,3-dihydro-1H-inden-5-yl}oxy)-2,3-dihydro-1H-indene-1,3-dione], the inhibition at 1 µM was 20% and the inhibition at 3 µM was found to be 45%.

Take `COCCOCCOCCNC(=O)C1C(=O)c2ccc(Oc3ccc4c(c3)C(=O)C(C(=O)NCCOCCOCCOC)C4=O)cc2C1=O` (stereo not shown) [Example 384, N-{2-[2-(2-methoxyethoxy)ethoxy]ethyl}-5-{[2-({2-[2-(2-methoxyethoxy)ethoxy]ethyl}carbamoyl)-1,3-dioxo-2,3-dihydro-1H-inden-5-yl]oxy}-1,3-dioxo-2,3-dihydro-1H-indene-2-carboxamide]: the inhibition at 1 µM was determined as 4% and the inhibition at 3 µM stood at 9%.

Regarding `CC(C)(C)OC(=O)NCCCC(=O)C1C(=O)c2ccc(Oc3ccc4c(c3)C(=O)C(C(=O)CCCNC(=O)OC(C)(C)C)C4=O)cc2C1=O` (stereo not shown) [Example 385, tert-butyl N-[4-(5-{[2-(4-{[(tert-butoxy)carbonyl]amino}butanoyl)-1,3-dioxo-2,3-dihydro-1H-inden-5-yl]oxy}-1,3-dioxo-2,3-dihydro-1H-inden-2-yl)-4-oxobutyl]carbamate], the inhibition at 1 µM is 29% and the inhibition at 3 µM turned out to be 59%.

Regarding `CC(C)(C)OC(=O)NCCCC(=O)C1C(=O)c2ccc(C(=O)c3ccc4c(c3)C(=O)C(C(=O)CCCNC(=O)OC(C)(C)C)C4=O)cc2C1=O` (stereo not shown) [Example 386, tert-butyl N-(4-{5-[2-(4-{[(tert-butoxy)carbonyl]amino}butanoyl)-1,3-dioxo-2,3-dihydro-1H-indene-5-carbonyl]-1,3-dioxo-2,3-dihydro-1H-inden-2-yl}-4-oxobutyl)carbamate], the inhibition at 1 µM is 13% and the inhibition at 3 µM was found to be 34%.

On to `CC(C)(C)OC(=O)NCCCC(=O)C1C(=O)c2ccc(S(=O)(=O)c3ccc4c(c3)C(=O)C(C(=O)CCCNC(=O)OC(C)(C)C)C4=O)cc2C1=O` (stereo not shown) [Example 387, tert-butyl N-[4-(5-{[2-(4-{[(tert-butoxy)carbonyl]amino}butanoyl)-1,3-dioxo-2,3-dihydro-1H-inden-5-yl]sulfonyl}-1,3-dioxo-2,3-dihydro-1H-inden-2-yl)-4-oxobutyl]carbamate], for which the inhibition at 1 µM is 16% and the inhibition at 3 µM amounted to 52%.

Turning to `COCCOCCOCCNC(=O)C1C(=O)c2ccc(C(=O)c3ccc4c(c3)C(=O)C(C(=O)NCCOCCOCCOC)C4=O)cc2C1=O` (stereo not shown) [Example 388, N-{2-[2-(2-methoxyethoxy)ethoxy]ethyl}-5-[2-({2-[2-(2-methoxyethoxy)ethoxy]ethyl}carbamoyl)-1,3-dioxo-2,3-dihydro-1H-indene-5-carbonyl]-1,3-dioxo-2,3-dihydro-1H-indene-2-carboxamide], the inhibition at 1 µM stood at 23% and the inhibition at 3 µM was determined as 31%.

As for `O=C(NC1CCC1)C1C(=O)c2ccc(Oc3ccc4c(c3)C(=O)C(C(=O)NC3CCC3)C4=O)cc2C1=O` (stereo not shown) [Example 389, N-cyclobutyl-5-{[2-(cyclobutylcarbamoyl)-1,3-dioxo-2,3-dihydro-1H-inden-5-yl]oxy}-1,3-dioxo-2,3-dihydro-1H-indene-2-carboxamide], the inhibition at 1 µM came to 31% and the inhibition at 3 µM was found to be 80%.

Consider `COCCOCCN(CC(=O)C1C(=O)c2ccc(Oc3ccc4c(c3)C(=O)C(C(=O)CN(CCOCCOC)C(=O)OC(C)(C)C)C4=O)cc2C1=O)C(=O)OC(C)(C)C` (stereo not shown) [Example 390, tert-butyl N-{2-[5-({2-[2-(11,11-dimethyl-9-oxo-2,5,10-trioxa-8-azadodecan-8-yl)acetyl]-1,3-dioxo-2,3-dihydro-1H-inden-5-yl}oxy)-1,3-dioxo-2,3-dihydro-1H-inden-2-yl]-2-oxoethyl}-N-[2-(2-methoxyethoxy)ethyl]carbamate], for which the inhibition at 1 µM was found to be 27% and the inhibition at 3 µM worked out at 31%.

For the compound `COCCOCCN(CC(=O)C1C(=O)c2ccc(C(=O)c3ccc4c(c3)C(=O)C(C(=O)CN(CCOCCOC)C(=O)OC(C)(C)C)C4=O)cc2C1=O)C(=O)OC(C)(C)C` (stereo not shown) [Example 391, tert-butyl N-[2-(5-{2-[2-(11,11-dimethyl-9-oxo-2,5,10-trioxa-8-azadodecan-8-yl)acetyl]-1,3-dioxo-2,3-dihydro-1H-indene-5-carbonyl}-1,3-dioxo-2,3-dihydro-1H-inden-2-yl)-2-oxoethyl]-N-[2-(2-methoxyethoxy)ethyl]carbamate], the inhibition at 1 µM stood at 1% and the inhibition at 3 µM came to 6%.

In the case of `COCCOCCN(CC(=O)C1C(=O)c2ccc(S(=O)(=O)c3ccc4c(c3)C(=O)C(C(=O)CN(CCOCCOC)C(=O)OC(C)(C)C)C4=O)cc2C1=O)C(=O)OC(C)(C)C` (stereo not shown) [Example 392, tert-butyl N-{2-[5-({2-[2-(11,11-dimethyl-9-oxo-2,5,10-trioxa-8-azadodecan-8-yl)acetyl]-1,3-dioxo-2,3-dihydro-1H-inden-5-yl}sulfonyl)-1,3-dioxo-2,3-dihydro-1H-inden-2-yl]-2-oxoethyl}-N-[2-(2-methoxyethoxy)ethyl]carbamate], the inhibition at 1 µM was 1% and the inhibition at 3 µM came out at 1%.

Regarding `COCCOCCNCC(=O)C1C(=O)c2ccc(C(=O)c3ccc4c(c3)C(=O)C(C(=O)CNCCOCCOC)C4=O)cc2C1=O` (stereo not shown) [Example 393, 2-(2-{[2-(2-methoxyethoxy)ethyl]amino}acetyl)-5-[2-(2-{[2-(2-methoxyethoxy)ethyl]amino}acetyl)-1,3-dioxo-2,3-dihydro-1H-indene-5-carbonyl]-2,3-dihydro-1H-indene-1,3-dione], the inhibition at 1 µM was found to be 1% and the inhibition at 3 µM came to 4%.

For `COCCOCCNCC(=O)C1C(=O)c2ccc(Oc3ccc4c(c3)C(=O)C(C(=O)CNCCOCCOC)C4=O)cc2C1=O` (stereo not shown) [Example 394, 2-(2-{[2-(2-methoxyethoxy)ethyl]amino}acetyl)-5-{[2-(2-{[2-(2-methoxyethoxy)ethyl]amino}acetyl)-1,3-dioxo-2,3-dihydro-1H-inden-5-yl]oxy}-2,3-dihydro-1H-indene-1,3-dione], the inhibition at 1 µM turned out to be 2% and the inhibition at 3 µM was 5%.

On to `COCCOCC(=O)C1C(=O)c2ccc(C(=O)c3ccc4c(c3)C(=O)C(C(=O)COCCOC)C4=O)cc2C1=O` (stereo not shown) [Example 395, 2-[2-(2-methoxyethoxy)acetyl]-5-{2-[2-(2-methoxyethoxy)acetyl]-1,3-dioxo-2,3-dihydro-1H-indene-5-carbonyl}-2,3-dihydro-1H-indene-1,3-dione], for which the inhibition at 1 µM is 2% and the inhibition at 3 µM turned out to be 13%.

On to `COCCOCC(=O)C1C(=O)c2ccc(Oc3ccc4c(c3)C(=O)C(C(=O)COCCOC)C4=O)cc2C1=O` (stereo not shown) [Example 396, 2-[2-(2-methoxyethoxy)acetyl]-5-({2-[2-(2-methoxyethoxy)acetyl]-1,3-dioxo-2,3-dihydro-1H-inden-5-yl}oxy)-2,3-dihydro-1H-indene-1,3-dione], for which the inhibition at 1 µM was 14% and the inhibition at 3 µM amounted to 17%.

`COCCOCCNCC(=O)C1C(=O)c2ccc(S(=O)(=O)c3ccc4c(c3)C(=O)C(C(=O)CNCCOCCOC)C4=O)cc2C1=O` (stereo not shown) [Example 397, 2-(2-{[2-(2-methoxyethoxy)ethyl]amino}acetyl)-5-{[2-(2-{[2-(2-methoxyethoxy)ethyl]amino}acetyl)-1,3-dioxo-2,3-dihydro-1H-inden-5-yl]sulfonyl}-2,3-dihydro-1H-indene-1,3-dione]: the inhibition at 1 µM was found to be 2% and the inhibition at 3 µM turned out to be 9%.

Turning to `CC(=O)OC[C@H]1O[C@@H](OC(C)=O)[C@H](NC(=O)C2C(=O)c3ccc(C(=O)c4ccc5c(c4)C(=O)C(C(=O)N[C@H]4[C@H](OC(C)=O)O[C@H](COC(C)=O)[C@@H](OC(C)=O)[C@@H]4OC(C)=O)C5=O)cc3C2=O)[C@@H](OC(C)=O)[C@@H]1OC(C)=O` (stereo partly drawn) [Example 398, [(2R,3S,4R,5R,6S)-3,4,6-tris(acetyloxy)-5-[5-(1,3-dioxo-2-{[(2S,3R,4R,5S,6R)-2,4,5-tris(acetyloxy)-6-[(acetyloxy)methyl]oxan-3-yl]carbamoyl}-2,3-dihydro-1H-indene-5-carbonyl)-1,3-dioxo-2,3-dihydro-1H-indene-2-amido]oxan-2-yl]methyl acetate], the inhibition at 1 µM was found to be 6% and the inhibition at 3 µM turned out to be 23%.
